Test results as given in ChEMBL document CHEMBL4402561, “Discovery of Potent Dual-Tailed Benzenesulfonamide Inhibitors of Human Carbonic Anhydrases Implicated in Glaucoma and in Vivo Profiling of Their Intraocular Pressure-Lowering Action” (J Med Chem, 2020).

Tests used:
[1] = target: Carbonic anhydrase 1 (Homo sapiens, UniProt P00915)
Description: Inhibition of recombinant human carbonic anhydrase 1 incubated for 6 hrs prior to testing measured for 10 to 100 secs by phenol red-based stopped-flow CO2 hydration assay

[2] = target: Carbonic anhydrase 2 (Homo sapiens, UniProt P00918)
Description: Inhibition of recombinant human carbonic anhydrase 2 incubated for 6 hrs prior to testing measured for 10 to 100 secs by phenol red-based stopped-flow CO2 hydration assay

[3] = target: Carbonic anhydrase 4 (Homo sapiens, UniProt P22748)
Description: Inhibition of recombinant human carbonic anhydrase 4 incubated for 6 hrs prior to testing measured for 10 to 100 secs by phenol red-based stopped-flow CO2 hydration assay

[4] = target: Carbonic anhydrase 7 (Homo sapiens, UniProt P43166)
Description: Inhibition of recombinant human carbonic anhydrase 7 incubated for 6 hrs prior to testing measured for 10 to 100 secs by phenol red-based stopped-flow CO2 hydration assay

[5] = system: Oryctolagus cuniculus; assay: Antiglaucoma activity in hypertonic saline solution-induced New Zealand albino rabbit model of ocular hypertension assessed as reduction in intraocular pressure at 1% administered topically to eye measured after 240 mins by pneumotonometric- method; type: functional

Chain of Carbonic anhydrase 1 (P00915 whole entry): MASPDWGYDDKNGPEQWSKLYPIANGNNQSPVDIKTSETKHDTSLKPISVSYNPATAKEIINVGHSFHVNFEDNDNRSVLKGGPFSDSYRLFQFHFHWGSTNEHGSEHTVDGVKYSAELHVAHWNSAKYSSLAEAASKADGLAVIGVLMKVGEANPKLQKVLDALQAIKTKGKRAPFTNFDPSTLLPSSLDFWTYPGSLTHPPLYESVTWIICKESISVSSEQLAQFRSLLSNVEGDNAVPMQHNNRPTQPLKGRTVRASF
Chain of Carbonic anhydrase 4 (P22748 whole entry): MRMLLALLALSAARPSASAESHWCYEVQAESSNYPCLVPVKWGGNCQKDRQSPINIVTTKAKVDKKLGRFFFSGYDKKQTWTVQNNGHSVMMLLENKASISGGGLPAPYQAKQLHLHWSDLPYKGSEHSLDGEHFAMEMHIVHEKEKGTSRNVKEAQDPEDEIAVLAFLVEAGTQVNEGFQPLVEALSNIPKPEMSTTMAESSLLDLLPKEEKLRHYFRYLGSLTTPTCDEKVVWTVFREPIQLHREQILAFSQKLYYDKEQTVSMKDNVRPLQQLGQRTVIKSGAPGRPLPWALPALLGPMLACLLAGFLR
Chain of Carbonic anhydrase 7 (P43166 whole entry): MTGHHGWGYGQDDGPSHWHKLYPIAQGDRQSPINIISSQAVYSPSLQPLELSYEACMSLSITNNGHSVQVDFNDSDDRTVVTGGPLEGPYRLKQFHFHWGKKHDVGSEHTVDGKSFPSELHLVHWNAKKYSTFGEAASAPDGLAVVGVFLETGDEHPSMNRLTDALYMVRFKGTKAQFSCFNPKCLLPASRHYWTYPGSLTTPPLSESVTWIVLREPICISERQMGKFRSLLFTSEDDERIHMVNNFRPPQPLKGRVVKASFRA

Row | SMILES | Ki [1] | Ki [2] | Ki [3] | Ki [4] | Activity [5]
1 | CC(=O)CC(=O)Nc1ccc(S(N)(=O)=O)cc1 | 69.2 nM | 39.5 nM | 885 nM | 273 nM | –
2 | CC(=O)/C(=N\Nc1cccc([N+](=O)[O-])c1)C(=O)Nc1ccc(S(N)(=O)=O)cc1 | 751 nM | 71.4 nM | > 10000 nM | 792 nM | –
3 | CC(=O)/C(=C\c1ccc(F)cc1Cl)C(=O)Nc1ccc(S(N)(=O)=O)cc1 | 52.7 nM | 5.6 nM | 222 nM | 23.5 nM | –
4 | CC(=O)/C(=C\c1cccs1)C(=O)Nc1ccc(S(N)(=O)=O)cc1 | 49.1 nM | 2.9 nM | 810 nM | 5.3 nM | –
5 | CC(=O)/C(=N\Nc1ccccc1)C(=O)Nc1ccc(S(N)(=O)=O)cc1 | 82.2 nM | 4.3 nM | > 10000 nM | 647 nM | –
6 | COc1ccc(N/N=C(\C(C)=O)C(=O)Nc2ccc(S(N)(=O)=O)cc2)cc1OC | 59.3 nM | 5 nM | 1480 nM | 4.4 nM | –
7 | COc1ccc(/C=C(\C(C)=O)C(=O)Nc2ccc(S(N)(=O)=O)cc2)cc1 | 15.3 nM | 0.45 nM | 609 nM | 3.1 nM | 1.5 mmHg
8 | CC(=O)/C(=C\c1cccc([N+](=O)[O-])c1)C(=O)Nc1ccc(S(N)(=O)=O)cc1 | 75.5 nM | 6.9 nM | 387 nM | 46.3 nM | –
9 | CC(=O)/C(=C\c1ccccc1)C(=O)Nc1ccc(S(N)(=O)=O)cc1 | 68.7 nM | 4.4 nM | 958 nM | 44.4 nM | –
10 | CC(=O)/C(=C\c1ccc(Cl)cc1)C(=O)Nc1ccc(S(N)(=O)=O)cc1 | 41.1 nM | 0.61 nM | 145 nM | 4.3 nM | 1.3 mmHg
11 | CC(=O)/C(=C\c1ccccc1Cl)C(=O)Nc1ccc(S(N)(=O)=O)cc1 | 7.3 nM | 0.36 nM | 383 nM | 2.9 nM | 2 mmHg

Further lines, with some results ahead:

Row | Ki [1] | Ki [2] | Ki [3] | Ki [4] | SMILES | Activity [5]
12 | 44.1 nM | 3 nM | 907 nM | 6.1 nM | NS(=O)(=O)c1ccc(NC(=O)/C(Cl)=N/Nc2ccc(Cl)cc2)cc1 | –
13 | 296 nM | 34.8 nM | 7380 nM | 46.6 nM | NS(=O)(=O)c1ccc(NC(=O)/C(Cl)=N/Nc2ccc(F)cc2)cc1 | –
14 | 2640 nM | 5.2 nM | > 10000 nM | 1690 nM | CC(=O)/C(=N\Nc1ccc(Cl)cc1)C(=O)Nc1ccc(S(N)(=O)=O)cc1 | –
15 | 704 nM | 273 nM | > 10000 nM | 3590 nM | COc1ccc(N/N=C(\C(C)=O)C(=O)Nc2ccc(S(N)(=O)=O)cc2)cc1 | –
16 | 926 nM | 262 nM | > 10000 nM | 1030 nM | NS(=O)(=O)c1ccc(NC(=O)/C(Cl)=N/Nc2ccc(Br)cc2)cc1 | –
17 | 227 nM | 40.6 nM | 7360 nM | 68.1 nM | NS(=O)(=O)c1ccc(NC(=O)/C(Cl)=N/Nc2ccccc2)cc1 | –
18 | 86.1 nM | 21.1 nM | 6420 nM | 55.2 nM | COc1ccc(N/N=C(\Cl)C(=O)Nc2ccc(S(N)(=O)=O)cc2)cc1 | –
19 | > 10000 nM | 371 nM | > 10000 nM | > 10000 nM | CC(=O)/C(=N\Nc1ccc(Br)cc1)C(=O)Nc1ccc(S(N)(=O)=O)cc1 | –
20 | 2670 nM | 8.1 nM | > 10000 nM | 3320 nM | CC(=O)/C(=N\Nc1ccc(F)cc1)C(=O)Nc1ccc(S(N)(=O)=O)cc1 | –
21 | 513 nM | 52.2 nM | > 10000 nM | 762 nM | CC(=O)/C(=N\Nc1ccc(C#N)cc1)C(=O)Nc1ccc(S(N)(=O)=O)cc1 | –
